Laboratory results from US4594345A, “Methylflavone-8-carboxylates” (Nippon Shinyaku Co. Ltd., priority 1982, dated 1986).

How the values were obtained:
[1] = tested on: passive cutaneous anaphylaxis (PCA); test: Passive cutaneous anaphylaxis assay (PCA) in rats; type: in vivo, rat (Wister strain); settings: oral 10 mg/kg, one hour before antigen; for inhibition in vivo at 10 mg/kg: Rattus norvegicus, po, 1 h, read-out: PCA Inhibition Ratio %
Description: (§1) The effect of the compounds (I) of the present invention in the treatment of asthma and allergic diseases were evaluated by a passive cutaneous anaphylaxis assay (PCA) in rats and by measuring anti-SRS-A action using ileus of guinea pigs.
(i) Antiserum abundant in homocytotropic antibody is prepared by the same method as Tada and Okumura did (cf. Journal of Immunology, volume 106, page 1002, […]). Thus, one mg (calculated as an amount of protein) of DNP-As (2,4-dinitrophenyl-coupled ascaris extract) prepared by methods of Strejan and Campbell (Journal of Immunology, volume 98, page 893, 1971) and of Eisen (Journal of American Chemical Society, volume 85, page 4593, 1953) and […] pertussis vaccine are administered to each paw of Wister strain rats (180 to 200 grams body weights) by dividing the dose by four. Five days later, 0.5 mg of DNP-As is adminstered into muscle of back. Eight days later from the initial immunization, blood is taken from descending aorta under anesthetizing with ether, the resulting serum is stored at -80° C. and is melted before use.
(ii) Effect of tested compounds is investigated as follows:
Anti-serum obtained by the method (i) is diluted with physiological saline solution double by double successively and 0.05 ml of each diluted solution is administered into back of Wister strain rats (140 to 160 grams body weight) subcutaneously. After 72 hours, a solution of 2 mg (calculated as protein) of DNP-As and 2.5 mg of Evand Blue dissolved in 1 ml of physiological saline solution is administered intravenously at a dose of 5 ml/kg. After thirty minutes from antigen solution administration, the animals are killed and diameters of blue spots appeared at the place where antiserum is administered are measured. The PCA test is conducted by the same method as already described using a diluted solutions of antiserum which always show 10 mm or more of spot diameters and the effect of the test compounds is judged. Thus, antiserum diluted solutions are administered to two places in back. Test compounds are administered orally at the dose of 10 mg/kg one hour before administration of antigen solution. From the skin of reacted parts of killed animals, leaked or emitted dyestuff is extracted [cf. Baeck and Steinetz: J. Pharmacol. Exp. Ther., Vol. 131, page 400 (1961)] and the amount of the dyestuff is measured. The inhibition ratio is calculated by the following expression: [formula] in which R' is an amount of dyestuff in the group treated with the test compounds and A is that in the control group.

[2] = tested on: male mice; test: Acute toxicity, oral, observed for two weeks; type: in vivo; settings: oral 4000 mg/kg, dead/total
Description: Acute toxicity is observed for two weeks by oral adminsitration of 4000 mg/kg of the test compounds to male mice. One group consists of four mice. Numbers of dead mice are shown in numerators.

[3] = tested on: SRS-A; test: Anti-SRS-A action (SRS-A induced shrinkage of guinea pig ileus); set-up: species or system guinea pig (Hartley strain male); settings: treated five minutes before SRS-A (20 units), 5 min; for SRS-A Inhibition Ratio % 10^-6 M: 1 µM; for SRS-A Inhibition Ratio % 10^-7 M: 0.1 µM
Description: as §1
Anti-SRS-A action (An anti-action against slow reacting substance of anaphylaxie)
Hartley strain male guinea pigs (300 to 350 grams body weight) are killed and 1.0 to 1.5 cm of ileus is immediately excised from ileocecal parts and is suspended in 10 ml of Tyrode solution (95% O2 -5% CO2 saturation) containing 10^-7 g/ml of atropine and 10^-6 g/ml of pyrilamine. SRS-A (20 units) (the amount of SRS-A showing the same shrinkage as 5 ng of histamine is defined as one unit) prepared by using sensitized guinea pig lung is given to cause shrinkage there. Then antagonistic action of test compounds treated five minutes ago against the shrinkage is measured and recorded via isotonic transducer. [formula] in which A' is a height of shrinkage of SRS-A + test compound and A is that of SRS-A.

[4] = tested on: carrageenin edema; test: Carrageenin edema in hind foot of rat (anti-inflammatory action); type: in vivo, rat (SD strain); set-up: concentration or dose not given beside the values; settings: rats, oral one hour prior to carrageenin; foot volume three hours after
Description: Anti-inflammatory action was evaluated by measuring the effect of the compounds (I) in inhibiting carrageenin edema as illustrated below.
Carrageenin edema in hind foot of rat.
SD strain rats of about 150 grams body weight were used; each group consisted of five rats. Thus, 0.1 ml of 0.5% carrageenin solution in physiological saline water was hypodermically injected to the right hind foot of rat. The test compound was given orally to rats one hour prior to the above carrageenin treatment. Then the volume of the foot before and three hours after the carrageenin treatment was measured and the difference was compared with that of the control group.

[5] = tested on: allergic asthma; settings: cited from earlier work
[6] = tested on: mast cells; settings: believed; cited from earlier work

| SMILES | inhibition in vivo at 10 mg/kg [1] [%] | Lethal Ratio [2] | SRS-A Inhibition Ratio % 10^-6 M [3] [%] | SRS-A Inhibition Ratio % 10^-7 M [3] [%] | % Inhibition (carrageenin edema) [4] [%] | duration of action ([5]; in vivo) | pharmaceutical effect by oral administration ([5]; oral) | effect in allergic asthma ([5]; reported by Cox, et al.) | inhibition of emission of chemical mediators [6] | PCA Inhibition Ratio % ([1]; 10 mg/kg) [%] |
| --- | --- | --- | --- | --- | --- | --- | --- | --- | --- | --- |
| CCNC(=O)c1cccc2c(=O)c(C)c(-c3ccccc3OC)oc12 [Example 13, 2'-methoxy-3-methylflavone-8-carboxylic acid acid N-ethylamide] | 23 | 1/4 | 45.2 | 37.4 | – | – | – | – | – | – |
| CCN(CC)C(=O)c1cccc2c(=O)c(C)c(-c3ccccc3C)oc12 [Example 35, 2',3-dimethylflavone-8-carboxylic acid N,N-diethylamide] | 13.3 | – | 48.8 | 18.0 | 13.0 | – | – | – | – | – |
| CCN(CC)C(=O)c1cccc2c(=O)c(C)c(-c3ccc(C(C)C)cc3)oc12 [Example 48, 4'-isopropyl-3-methylflavone-8-carboxylic acid N,N-diethylamide] | 27.2 | 0/4 | 100 | 23.3 | 23.2 | – | – | – | – | – |
| O=C(O)c1cc(=O)c2c(OCC(O)COc3cccc4oc(C(=O)O)cc(=O)c34)cccc2o1 [sodium cromoglicate] | – | – | – | – | – | its action is of short duration | does not show any pharmaceutical effect by oral administration | effective for allergic asthma | inhibits emission of chemical mediators from mast cells | – |
| Cc1c(-c2ccccc2OC(C)C)oc2c(C(=O)O)cccc2c1=O [Example 20, 2'-isopropoxy-3-methylflavone-8-carboxylic acid] | 20.7 | – | 38.5 | 20.4 | 32.5 | – | – | – | – | – |
| CCOc1ccccc1-c1oc2c(C(=O)OCCO)cccc2c(=O)c1C [Example 4, Beta-Hydroxyethyl 2'-ethoxy-3-methylflavone 8-carboxylate] | 20.5 | 0/4 | 67.2 | 42.4 | 33.9 | – | – | – | – | – |
| Cc1c(-c2ccc(Cl)cc2)oc2c(C(=O)OCCO)cccc2c1=O [Example 74, beta-hydroxyethyl 4'-chloro-3-methylflavone-8-carboxylate] | 17.3 | 0/4 | 52.0 | 18.7 | – | – | – | – | – | – |
| CCCCCCCCc1ccc(-c2oc3c(C(=O)O)cccc3c(=O)c2C)cc1 [Example 62, 3-methyl-4'-n-octylflavone-8-carboxylicacid] | 16.3 | 0/4 | 83.3 | 31.0 | – | – | – | – | – | – |
| CCCCCc1ccc(-c2oc3c(C(=O)O)cccc3c(=O)c2C)cc1 [Example 58, 3-methyl-4'-n-pentylflavone-8-carboxylic acid] | 28.8 | 0/4 | 40.0 | 10.3 | 31.9 | – | – | – | – | – |
| CCOC(=O)c1cccc2c(=O)c(C)c(-c3ccccc3OC)oc12 [Example 11, ethyl 2'-methoxy-3-methylflavone-8-carboxylate] | 16.3 | 0/4 | 100 | 35.1 | – | – | – | – | – | – |
| CCOc1ccccc1-c1oc2c(C(=O)N(CC)CC)cccc2c(=O)c1C [Example 18, 2'-ethoxy-3-methylflavone-8-carboxylic acid N,N-diethylamide] | 27.4 | 0/4 | 57.1 | 32.1 | – | – | – | – | – | – |
| CCN(CC)C(=O)c1cccc2c(=O)c(C)c(-c3cc(Cl)ccc3Cl)oc12 [Example 78, 2',5'-dichloro-3-methylflavone-8-carboxylic acid N,N-diethylamide] | 26.3 | – | 79.3 | 5.6 | – | – | – | – | – | – |
| CCOC(=O)c1cccc2c(=O)c(C)c(-c3ccc(Cl)cc3Cl)oc12 [Example 80, ethyl 2',4'-dichloro-3-methylflavone-8-carboxylate] | 21.3 | – | 61.7 | 17.6 | – | – | – | – | – | – |
| Cc1c(-c2ccc(C(C)(C)C)cc2)oc2c(C(=O)O)cccc2c1=O [Example 55, 4'-tertiary butyl-3-methylflavone-8-carboxylic acid] | 20.3 | – | 100 | 21.1 | 19.1 | – | – | – | – | – |
| CCCCCc1ccc(-c2oc3c(C(=O)O)cccc3c(=O)c2C)cc1 [Example 61] | – | – | 40.7 | 9.4 | – | – | – | – | – | 22.7 |
| CCCCN(CCCC)C(=O)c1cccc2c(=O)c(C)c(-c3ccc(C(C)C)cc3)oc12 [Example 49, 4'-isopropyl-3-methylflavone-8-carboxylic acid N,N-di-n-butylamide] | 20 | – | 82.8 | 55.6 | – | – | – | – | – | – |
| CCOC(=O)c1cccc2c(=O)c(C)c(-c3ccccc3OCC)oc12 [Example 17, ethyl 2'-ethoxy-3-methylflavone-8-carboxylate] | 21.1 | – | 72.5 | 50.0 | – | – | – | – | – | – |
